Results as given in patent US9862680B2, “Peripherally substituted monocyclic beta-lactams” (University of Notre Dame du Lac, priority 2016, dated 2018).

How the values were obtained:
[1] = test system: panel of Gram-positive and Gram-negative bacteria; assay: MIC determination; type: cell-based; conditions: same panel of Gram-positive and Gram-negative bacteria, all values
S. Aureus SG511 = assay: Agar diffusion assay (modified Kirby-Bauer); type: cell-based; conditions: 2 mM solution, 50 μL in 9.0 mm well, P unclear, V very unclear zone, * slightly misshapen zone
Method: (§1) Antibacterial activity of the compounds was determined by a modified Kirby-Bauer^27-28 agar-diffusion assay. Overnight cultures of test organisms were grown in LB broth for 18-24h and standard suspensions of […] were prepared in saline solution (0.9% NaCl) according to a 0.5 BaSO4 McFarland Standard. This standardized suspension (0.1 mL) was added to 34 mL of sterile, Mueller Hinton No. 2 agar tempered to 47-50° C. After gentle mixing, the inoculated agar media was poured into a sterile plastic petri dish (145 mm×20 mm) and allowed to solidify near a flame with the lid cracked for 30 min. Wells of 9.0 mm diameter were cut from the petri dish agar and filled with exactly 50 μL of the test sample solution. For studies using mixtures of compounds, both test compounds were diluted to equal concentrations and 50 μL of the mixed compound solution was added to the cut well. The petri dish was incubated at 37° C. for 18-24 h and the inhibition zone diameters were measured (mm) with an electronic caliper after 24-48 h.
(§2) All compound-containing solutions were prepared by first making a 20 mM solution of the compound in DMSO and then diluting that solution 10-fold with MeOH to give the final 2 mM solution used in the assay.
(§3) Plates were incubated after inoculation at 37° C. for 20 hours. Plates were photographed after 1 day. M. vaccae required a longer incubation time, 48 hours, and was photographed after 3 days.

B. Dolosa AU 0018 = assay: Agar diffusion assay (modified Kirby-Bauer); type: cell-based; conditions: 2 mM solution, 50 μL in 9.0 mm well, P unclear, V very unclear zone, * slightly misshapen zone
Method: as §1, §2, §3

P. Aeruginosa K799/wt = assay: Agar diffusion assay (modified Kirby-Bauer); type: cell-based; conditions: P. Aeruginosa K799/wt (wild type); 2 mM solution, 50 μL in 9.0 mm well; P unclear, V very unclear zone, * slightly misshapen zone
Method: as §1, §2, §3

E. Coli DC0 = assay: Agar diffusion assay (modified Kirby-Bauer); type: cell-based; conditions: 2 mM solution, 50 μL in 9.0 mm well, P unclear, V very unclear zone, * slightly misshapen zone
Method: as §1, §2, §3

M. Vaccae IMET 10670 = assay: Agar diffusion assay (modified Kirby-Bauer); type: cell-based; conditions: 2 mM solution, 50 μL in 9.0 mm well, 48 hours incubation, P unclear, V very unclear zone, * slightly misshapen zone
Method: as §1, §2, §3

E. Coli DC2 = assay: Agar diffusion assay (modified Kirby-Bauer); type: cell-based; conditions: E. Coli DC2, 2 mM solution, 50 μL in 9.0 mm well, P unclear, V very unclear zone, * slightly misshapen zone
Method: as §1, §2, §3

M. Luteus ATCC 10240 = assay: Agar diffusion assay (modified Kirby-Bauer); type: cell-based; conditions: M. Luteus ATCC 10240, 2 mM solution, 50 μL in 9.0 mm well, P unclear, V very unclear zone, * slightly misshapen zone
Method: as §1, §2, §3

B. Subtilis ATCC 6633 = assay: Agar diffusion assay (modified Kirby-Bauer); type: cell-based; conditions: 2 mM solution, 50 μL in 9.0 mm well, P unclear, V very unclear zone, * slightly misshapen zone
Method: as §1, §2, §3

A. Baumannii ATCC 17961 = assay: Agar diffusion assay (modified Kirby-Bauer); type: cell-based; conditions: 2 mM solution, 50 μL in 9.0 mm well, P unclear, V very unclear zone, * slightly misshapen zone
Method: as §1, §2, §3

P. Aeruginosa K799/61 = assay: Agar diffusion assay (modified Kirby-Bauer); type: cell-based; conditions: P. Aeruginosa K799/61 (permeability mutant); 2 mM solution, 50 μL in 9.0 mm well; P unclear, V very unclear zone, * slightly misshapen zone
Method: as §1, §2, §3

[2] = test system: panel of Gram-positive and Gram-negative bacteria; assay: Kirby-Bauer agar diffusion assays, results in words; type: cell-based
Method: as §1, §2, §3

NDM-1 = biological target: T1, NDM-1 (Klebsiella pneumoniae, UniProt C7C422); assay: β-lactamase inhibition, Ki by enzyme kinetics (imipenem); type: biochemical; conditions: NDM-1, class B
T1 construct: purchased Emerald Bioscience
Method: (§4) The enzymes KPC-2, Oxa-48, AmpC and NDM-1 were purchased from Emerald Bioscience and the enzymes CTX-14 and SHV-12 were expressed and purified from E. coli at Rempex pharmaceutical (San Diego, Calif.).
(§5) To the first row of a 2-mL deep 96-well block was added 1 mL of 50 mM sodium phosphate buffer at pH 7 with 0.1 mg/mL BSA (bovine serum albumin). To the first row was added an appropriate amount of a 10 mg/mL solution of the compound to be tested to make a 640 μM (4×) solution. Each of the other wells in the 96-well block were charged with 750 μL of the aforementioned buffer. The rows were then repeatedly diluted 1:3 so that the final concentrations of the individual 96-well plates would range in concentrations from 160 μM to 3 nM (8 dilutions). The master block was then used to add 50 pt to each corresponding well in the 96-well flat-bottom plate. An additional 50 of buffer was added to each well. Once the plates were prepared, 50 μL of the enzyme to be tested against were added in buffer to each well [KPC-2 (0.147 mg/mL), CTX-M-14 (0.102 mg/mL), […] (0.331 mg/mL), AmpC (0.699 mg/mL), SHV-12 (0.111 mg/mL), NDM-1 (0.110 mg/mL)]. The plates were incubated at rt for 10 min before 50 μL. of an appropriate indicator were added to each well and the optical density at 495 nm was measured over time. For each enzyme, other than NDM-1, nitrocefin was used. Nitrocefin (10 μM for SHV-12, 50 μM for the other enzymes), was appropriate because when cleaved by a β-lactamase, the color changes from yellow to red. For NDM-1, imipenem (10 μM) was the indicator of choice. Rather than observe the growing presence of optical density at 495 nm, as with nitrocefin, the disappearance of imipenem was monitored. The inhibition curves were monitored and used to perform enzyme kinetics according to Waley to determine the Ki (μM) of each compound against the β-lactamases screened.

PAM 2035 = assay: β-lactamase inhibition, Ki by enzyme kinetics; type: biochemical; conditions: PAM 2035, class C
AmpC = assay: β-lactamase inhibition, Ki by enzyme kinetics (nitrocefin); type: biochemical; conditions: class C
Method: as §4, §5

SHV-12 = biological target: T2, SHV-12 (Klebsiella pneumoniae, UniProt P0AD64, E235K/G234S/L31Q); assay: as above; type: biochemical; conditions: SHV-12, class A
T2 construct: host or cells: E. coli
Method: as §4, §5

Oxa-48 = biological target: T3, Oxa-48 (Klebsiella pneumoniae, UniProt Q6XEC0); assay: as above; type: biochemical; conditions: Oxa-48, class D
T3 construct: purchased Emerald Bioscience
Method: as §4, §5

KPC-2 = biological target: T4, KPC-2 (Klebsiella pneumoniae, UniProt Q9F663); assay: as above; type: biochemical; conditions: KPC-2, class A
T4 construct: purchased Emerald Bioscience
Method: as §4, §5

CTX-M-14 = biological target: T5, CTX-M-14 (Escherichia coli, UniProt Q9L5C7); assay: as above; type: biochemical; conditions: CTX-M-14, class A
T5 construct: host or cells: E. coli
Method: as §4, §5

VIM-1 = VIM-1 (Pseudomonas aeruginosa, UniProt A0A0F7KYQ8); assay: β-lactamase inhibition, Ki by enzyme kinetics; type: biochemical; conditions: VIM-1, class B
[3] = test system: selected β-lactamase enzymes from classes A, B, C and D; assay: β-lactamase inhibitory activity, results in words; type: biochemical; conditions: C and D (Ambler classification)
Method: as §5

T5 sequence (Q9L5C7 entry or part of it): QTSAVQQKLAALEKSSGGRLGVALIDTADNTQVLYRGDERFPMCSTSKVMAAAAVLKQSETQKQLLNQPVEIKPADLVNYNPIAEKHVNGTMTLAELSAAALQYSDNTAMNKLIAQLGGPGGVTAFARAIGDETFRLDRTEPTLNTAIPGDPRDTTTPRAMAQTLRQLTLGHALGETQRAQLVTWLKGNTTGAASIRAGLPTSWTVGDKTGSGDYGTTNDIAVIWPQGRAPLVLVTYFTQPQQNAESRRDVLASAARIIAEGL
T4 sequence (Q9F663 25-293 limits assumed): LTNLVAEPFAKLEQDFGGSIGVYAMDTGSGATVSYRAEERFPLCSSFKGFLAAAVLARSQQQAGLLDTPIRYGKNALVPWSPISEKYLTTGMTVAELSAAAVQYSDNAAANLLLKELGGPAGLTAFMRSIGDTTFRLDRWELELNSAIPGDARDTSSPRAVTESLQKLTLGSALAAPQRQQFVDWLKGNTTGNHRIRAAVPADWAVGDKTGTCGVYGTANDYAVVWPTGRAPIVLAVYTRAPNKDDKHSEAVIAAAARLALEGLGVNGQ
T3 sequence (Q6XEC0 23-265 limits assumed): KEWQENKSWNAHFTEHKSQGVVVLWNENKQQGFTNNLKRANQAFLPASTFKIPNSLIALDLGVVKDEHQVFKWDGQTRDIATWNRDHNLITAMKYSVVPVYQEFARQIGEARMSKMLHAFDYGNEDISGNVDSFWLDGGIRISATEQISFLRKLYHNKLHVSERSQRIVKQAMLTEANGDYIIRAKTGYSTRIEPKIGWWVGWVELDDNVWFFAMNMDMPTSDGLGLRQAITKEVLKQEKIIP
T1 sequence (C7C422 29-270 limits assumed): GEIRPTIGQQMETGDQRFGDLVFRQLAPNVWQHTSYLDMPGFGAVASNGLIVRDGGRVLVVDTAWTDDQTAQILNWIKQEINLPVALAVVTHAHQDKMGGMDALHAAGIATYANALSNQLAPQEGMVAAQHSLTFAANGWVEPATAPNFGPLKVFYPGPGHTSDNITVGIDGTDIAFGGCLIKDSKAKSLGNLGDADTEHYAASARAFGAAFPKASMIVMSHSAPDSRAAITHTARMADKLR
T2 sequence (P0AD64 22-286 L31Q/G234S/E235K): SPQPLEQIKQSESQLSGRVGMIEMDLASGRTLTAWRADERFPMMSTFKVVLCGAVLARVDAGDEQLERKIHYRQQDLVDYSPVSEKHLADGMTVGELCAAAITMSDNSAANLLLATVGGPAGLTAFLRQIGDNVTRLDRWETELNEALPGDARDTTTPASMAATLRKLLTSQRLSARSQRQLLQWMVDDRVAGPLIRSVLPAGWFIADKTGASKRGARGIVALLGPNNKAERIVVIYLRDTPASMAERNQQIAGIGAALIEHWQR

Row | SMILES | Zone of Growth Inhibition (P. Aeruginosa K799/wt) | Zone of Growth Inhibition (E. Coli DC0) | Zone of Growth Inhibition (B. Subtilis ATCC 6633) | Zone of Growth Inhibition (A. Baumannii ATCC 17961) | Zone of Growth Inhibition (P. Aeruginosa K799/61) | Ki (NDM-1) | Ki (PAM 2035) | Ki (AmpC) | Ki (SHV-12) | Ki (Oxa-48) | Ki (KPC-2) | Ki (CTX-M-14) | Ki (VIM-1) | Zone of Growth Inhibition (B. Dolosa AU 0018) | Zone of Growth Inhibition (E. Coli DC2) | β-lactamase inhibitory activity, selectivity [3] | Zone of Growth Inhibition (S. Aureus SG511) | further results
1 | CC(C)(C)OC(=O)NCCSC[C@@H]1NC(=O)[C@H]1NC(=O)OCC1c2ccccc2-c2ccccc21 [Compound 41] | 15P | 15V | 13P | 13P | 16P | – | – | – | – | – | – | – | – | – | – | – | – | MIC [1]: > 50 µM; zone of inhibition at 2000 µM (S. Aureus SG511; Staphylococcus aureus, read-out: Zone of Growth Inhibition): 0 mm; zone of inhibition at 2000 µM (B. Dolosa AU 0018; Burkholderia dolosa, read-out: Zone of Growth Inhibition): 0 mm; Zone of Growth Inhibition (M. Vaccae IMET 10670): 17V; zone of inhibition at 2000 µM (E. Coli DC2; Escherichia coli, read-out: Zone of Growth Inhibition): 0 mm; zone of inhibition at 2000 µM (M. Luteus ATCC 10240; Micrococcus luteus, ATCC10240, read-out: Zone of Growth Inhibition): 0 mm; antibacterial activity ([2]; E. coli strains DC0 and DC2): only active against the permeability mutant DC0; antibacterial activity ([2]; P. aeruginosa, both the wild type (K799/0 wt) and the permeability mutant (K799/61)): showed activity; antibacterial activity ([2]; against B. subtilis and M. vaccae, A. baumannii, P. aeruginosa and E. coli): moderate activity
2 | O=C1CC(CBr)N1OS(=O)(=O)/C=C/c1ccccc1 (stereo not drawn) [Compound 61a] | 0 mm | 0 mm | 15* mm | 0 mm | 0 mm | > 160 µM | > 160 µM | > 160 µM | 779 nM | 1.48 µM | 19.3 µM | 0.149 µM | > 160 µM | 0 mm | 0 mm | inhibited enzymes from both classes A and D | – | Zone of Growth Inhibition (M. Luteus ATCC 10240): 17 mm
3 | O=C1CC(CBr)N1OS(=O)(=O)c1cccc2ccccc12 (stereo not drawn) [Compound 61b] | 0 mm | 0 mm | 12 mm | 0 mm | 0 mm | > 160 µM | > 160 µM | > 160 µM | 198 nM | 4.67 µM | > 160 µM | > 160 µM | – | 0 mm | 0 mm | inhibited enzymes from both classes A and D | 14P | –
4 | O=C1CC(CBr)N1OS(=O)(=O)c1ccc2ccccc2c1 (stereo not drawn) [Compound 61c] | 0 mm | 0 mm | – | 0 mm | 0 mm | > 160 µM | > 160 µM | > 160 µM | 190 nM | > 160 µM | > 160 µM | > 160 µM | > 160 µM | 0 mm | 0 mm | active only against the class A enzyme SHV-12 | 15 mm | –
